# Test results from patent US12077503B2, “Substituted cyclic amides and their use as herbicides” (FMC CORPORATION, priority 2015, dated 2024).
# Experiments:
# Assay type in all cases: in vivo
# [1] = test system: ryegrass, Italian (Italian ryegrass, Lolium multiflorum); assay: Test A preemergence
# Summary of the method: (§1)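 Visual injury scores from 0, no effect, to 100, complete control, were assigned versus untreated controls roughly 10 d after treatment in the greenhouse. Test chemicals, formulated with surfactant in a non-phytotoxic solvent, were applied to planted seeds as a preemergence soil spray or postemergence to one- to two-leaf plants 2 to 10 cm tall, in loam–sand soil.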
# [2] = test system: ragweed (common ragweed, Ambrosia elatior); assay: Test A preemergence
# Summary of the method: as §1
# [3] = test system: giant foxtail (Setaria faberii); assay: Test A preemergence
# Summary of the method: as §1
# [4] = test system: barnyardgrass (Echinochloa crus-galli); assay: Test A preemergence
# Summary of the method: as §1
# [5] = test system: pigweed (Amaranthus retroflexus); assay: Test A preemergence
# Kochia (Kochia scoparia) [6] = assay: Test A preemergence
# Summary of the method: as §1
# [7] = test system: ryegrass, Italian (Italian ryegrass, Lolium multiflorum); assay: Test A postemergence
# Summary of the method: as §1
# [8] = test system: ragweed (common ragweed, Ambrosia elatior); assay: Test A postemergence
# Summary of the method: as §1
# [9] = test system: wheat (Triticum aestivum); assay: Test A postemergence
# Summary of the method: as §1
# corn (Zea mays) = assay: Test A postemergence
# Summary of the method: as §1
# [10] = test system: giant foxtail (Setaria faberii); assay: Test A postemergence
# Summary of the method: as §1
# [11] = test system: barnyardgrass (Echinochloa crus-galli); assay: Test A postemergence
# Summary of the method: as §1
# [12] = test system: pigweed (Amaranthus retroflexus); assay: Test A postemergence
# Summary of the method: as §1
# [13] = test system: Galium (catchweed bedstraw, Galium aparine); assay: Test A postemergence
# Summary of the method: as §1
# [14] = test system: blackgrass (Alopecurus myosuroides); assay: Test A postemergence
# Summary of the method: as §1
# Kochia (Kochia scoparia) [15] = assay: Test A postemergence
# Summary of the method: as §1
# [16] = test system: barnyardgrass (Echinochloa crus-galli); assay: Test B flooded paddy test; conditions: Flood, 250 g ai/ha; 0 to 100 scale where 0 is no effect and 100 is complete control; 13 to 15 d
# Summary of the method: (§2)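 Percent control, visually estimated after 13–15 d in the greenhouse on a 0–100 basis, compares treated pots with untreated ones; compound was put into paddy water 3 cm above the soil when plants had two leaves.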
# [17] = test system: sedge, umbrella (small-flower umbrella sedge, Cyperus difformis); assay: Test B flooded paddy test; conditions: Flood, 250 g ai/ha; 0 to 100 scale where 0 is no effect and 100 is complete control; 13 to 15 d
# Summary of the method: as §2
# rice (Oryra sativa) = assay: Test B flooded paddy test; conditions: Flood, 250 g ai/ha; 0 to 100 scale where 0 is no effect and 100 is complete control; 13 to 15 d
# Summary of the method: as §2
# [18] = test system: ducksalad (Heteranthera limosa); assay: Test B flooded paddy test; conditions: Flood, 250 g ai/ha; 0 to 100 scale where 0 is no effect and 100 is complete control; 13 to 15 d
# Summary of the method: as §2
# [19] = test system: johnsongrass (Sorghum halepense); assay: Test C preemergence; conditions: for Plant response rating (scale of 0 to 100), Johnsongrass: 31 g ai/ha, 0 is no effect, 100 is complete control; for Plant response rating, Johnsongrass: scale 0 to 100, 0 no effect, 100 complete control
# Summary of the method: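 Scores of 0 to 100 reflect visual comparison with control plants, where 0 means no effect and 100 complete control, made 13 to 15 d after treatment. Application was preemergence to seeds in loam-sand soil or postemergence to plants 2 to 18 cm tall in peat-based mix, using a surfactant-containing solvent formulation.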
# [20] = 125 g ai/ha, Preemergence, visual injury after approximately 10 d, 0 to 100 scale where 0 is no effect and 100 is complete control
# [21] = 500 g ai/ha, preemergence, 0 to 100 scale, 0 = no effect, 100 = complete control
# [22] = 125 g ai/ha, postemergence, visual rating after approx. 10 d, 0 to 100 scale (0 no effect, 100 complete control)
# [23] = Postemergence, 500 g ai/ha, 0 to 100 scale where 0 is no effect and 100 is complete control
# [24] = 500 g ai/ha, postemergence, visual injury, 0 to 100 scale (0 no effect, 100 complete control), approx. 10 d
SMILES,"Plant response rating, Ryegrass, Italian [1, 20]","Plant response rating, Ryegrass, Italian [1, 21]","Plant response rating, Ragweed [2, 21]","Plant response rating, Foxtail, Giant [3, 20]","Plant response rating, Foxtail, Giant [3, 21]","Plant response rating, Barnyardgrass [4, 20]","Plant response rating, Barnyardgrass [4, 21]","Plant response rating, Pigweed [5, 20]","Plant response rating, Pigweed [5, 21]","Plant response rating, Kochia (Kochia (Kochia scoparia) [6]; [20])","Plant response rating, Kochia (Kochia (Kochia scoparia) [6]; [21])","Plant response rating, Ryegrass, Italian [7, 22]","Plant response rating, Ragweed [8, 22]","Plant response rating, Wheat [9, 22]","Plant response rating, Corn (corn (Zea mays); [22])","Plant response rating, Corn (corn (Zea mays); [23])","Plant response rating, Foxtail, Giant [10, 22]","Plant response rating, Barnyardgrass [11, 22]","Plant response rating, Barnyardgrass [11, 23]","Plant response rating, Pigweed [12, 22]",further results
CN1CC(c2ccc(F)c(C(F)(F)F)c2)C(C(=O)Nc2cccc(F)c2F)C1=O (stereo not drawn) [Compound 613],70,80,60,90,90,90,90,70,70,60,70,60,20,40,50,80,90,70,90,50,"Plant response rating, Ragweed [2, 20]: 60; Plant response rating, Ryegrass, Italian [7, 23]: 60; Plant response rating, Ragweed [8, 23]: 30; Plant response rating, Wheat [9, 23]: 50; Plant response rating, Foxtail, Giant [10, 23]: 90; Plant response rating, Pigweed [12, 23]: 70; Plant response rating, Galium [13, 22]: 60; Plant response rating, Galium [13, 23]: 60; Plant response rating, Blackgrass [14, 22]: 40; Plant response rating, Blackgrass [14, 23]: 60; Plant response rating, Kochia (Kochia (Kochia scoparia) [15]; [22]): 60; Plant response rating, Kochia (Kochia (Kochia scoparia) [15]; [23]): 70; Plant response rating, Barnyardgrass [16]: 80; Plant response rating, Sedge, Umbrella [17]: 75; Plant response rating, Rice (rice (Oryra sativa)): 10; Plant response rating, Ducksalad [18]: 98; Plant response rating (scale of 0 to 100), Johnsongrass [19]: 75; Plant response rating, Johnsongrass ([19]; 62 g ai/ha): 85; Plant response rating, Johnsongrass ([19]; 125 g ai/ha): 90; Plant response rating, Johnsongrass ([19]; 250 g ai/ha): 90"
CN1CC(c2cccc(OC(F)F)c2)C(C(=O)Nc2ccccc2F)C1=O (stereo not drawn) [Compound 618],50,90,70,90,100,90,90,50,90,90,90,40,0,50,80,80,90,90,90,0,"Plant response rating, Ryegrass, Italian [7, 23]: 50; Plant response rating, Ragweed [8, 23]: 20; Plant response rating, Wheat [9, 23]: 70; Plant response rating, Foxtail, Giant [10, 23]: 90; Plant response rating, Pigweed [12, 23]: 30; Plant response rating, Galium [13, 22]: 50; Plant response rating, Galium [13, 23]: 60; Plant response rating, Blackgrass [14, 22]: 50; Plant response rating, Blackgrass [14, 23]: 60; Plant response rating, Kochia (Kochia (Kochia scoparia) [15]; [22]): 40; Plant response rating, Kochia (Kochia (Kochia scoparia) [15]; [23]): 60; Plant response rating, Barnyardgrass [16]: 85; Plant response rating, Sedge, Umbrella [17]: 0; Plant response rating, Rice (rice (Oryra sativa)): 10; Plant response rating, Ducksalad [18]: 100; Plant response rating (scale of 0 to 100), Johnsongrass [19]: 20; Plant response rating, Johnsongrass ([19]; 62 g ai/ha): 60; Plant response rating, Johnsongrass ([19]; 125 g ai/ha): 85; Plant response rating, Johnsongrass ([19]; 250 g ai/ha): 85"
CN1CC(c2ccc(C(F)(F)F)cc2)C(C(=O)Nc2ccccc2S(C)(=O)=O)C1=O (stereo not drawn) [Compound 624],40,40,70,90,90,90,90,80,80,40,60,30,0,20,0,40,80,80,90,20,"Plant response rating, Ragweed [2, 20]: 60; Plant response rating, Ryegrass, Italian [7, 23]: 30; Plant response rating, Ragweed [8, 23]: 0; Plant response rating, Wheat [9, 23]: 70; Plant response rating, Foxtail, Giant [10, 23]: 90; Plant response rating, Pigweed [12, 23]: 60; Plant response rating, Galium [13, 22]: 30; Plant response rating, Galium [13, 23]: 50; Plant response rating, Blackgrass [14, 22]: 40; Plant response rating, Blackgrass [14, 23]: 50; Plant response rating, Kochia (Kochia (Kochia scoparia) [15]; [22]): 0; Plant response rating, Kochia (Kochia (Kochia scoparia) [15]; [23]): 60; Plant response rating, Barnyardgrass [16]: 70; Plant response rating, Sedge, Umbrella [17]: 0; Plant response rating, Rice (rice (Oryra sativa)): 20; Plant response rating, Ducksalad [18]: 100; Plant response rating (scale of 0 to 100), Johnsongrass [19]: 0; Plant response rating, Johnsongrass ([19]; 62 g ai/ha): 0; Plant response rating, Johnsongrass ([19]; 125 g ai/ha): 0; Plant response rating, Johnsongrass ([19]; 250 g ai/ha): 25"
CN1CC(c2cccc(C(F)(F)F)c2)C(C(=O)Nc2cccc(F)c2F)C1=O (stereo not drawn) [Compound 636],90,90,70,90,90,90,90,40,80,50,70,50,0,60,70,80,90,90,90,30,"Plant response rating, Ragweed [2, 20]: 20; Plant response rating, Ryegrass, Italian [7, 24]: 70; Plant response rating, Ragweed [8, 24]: 30; Plant response rating, Wheat [9, 24]: 60; Plant response rating, Foxtail, Giant [10, 24]: 90; Plant response rating, Pigweed [12, 24]: 50; Plant response rating, Galium [13, 22]: 50; Plant response rating, Galium [13, 24]: 50; Plant response rating, Blackgrass [14, 22]: 60; Plant response rating, Blackgrass [14, 23]: 60; Plant response rating, Kochia (Kochia (Kochia scoparia) [15]; [22]): 50; Plant response rating, Kochia (Kochia (Kochia scoparia) [15]; [24]): 60; Plant response rating, Barnyardgrass [16]: 70; Plant response rating, Sedge, Umbrella [17]: 0; Plant response rating, Rice (rice (Oryra sativa)): 0; Plant response rating, Ducksalad [18]: 100; Plant response rating (scale of 0 to 100), Johnsongrass [19]: 80; Plant response rating, Johnsongrass ([19]; 62 g ai/ha): 85; Plant response rating, Johnsongrass ([19]; 125 g ai/ha): 85; Plant response rating, Johnsongrass ([19]; 250 g ai/ha): 90"
